Assay results taken from the NIST ThermoML archive (doi:10.1021/acs.jced.5b00798).

Legend:
[1] = xn = mol fraction of the nth substance listed; conditions: for surface tension liquid-gas: surface light scattering; for kinematic viscosity: 101 kPa, Liquid, Surface laser light scattering (SLLS)
[2] = for surface tension liquid-gas: surface light scattering; for kinematic viscosity: 101.33 kPa, Liquid, Surface laser light scattering (SLLS)

C=C(F)C(F)(F)F [2,3,3,3-tetrafluoro-1-propene] + FCF
[1]
Conditions | kinematic viscosity [m2/s] | surface tension liquid-gas [mN/m]
293.15 K, x2 = 0.7945 | 1.28e-07 | 7.04
293.16 K, x2 = 0.5193 | 1.31e-07 | 6.55
293.21 K, x2 = 0.6988 | 1.28e-07 | 6.9
303.14 K, x2 = 0.7945 | 1.18e-07 | 5.57
303.16 K, x2 = 0.5193 | 1.2e-07 | 5.29
303.2 K, x2 = 0.6988 | 1.19e-07 | 5.49
313.14 K, x2 = 0.5193 | 1.09e-07 | 4.1
313.21 K, x2 = 0.6988 | 1.09e-07 | 4.1
313.26 K, x2 = 0.7945 | 1.08e-07 | 4.14
323.17 K, x2 = 0.5193 | 1.01e-07 | 2.96
323.19 K, x2 = 0.6988 | 9.91e-08 | 2.82
323.2 K, x2 = 0.7945 | 9.82e-08 | 2.83
333.14 K, x2 = 0.5193 | 9.15e-08 | 1.91
333.21 K, x2 = 0.6988 | 8.98e-08 | 1.66
333.21 K, x2 = 0.7945 | 8.85e-08 | 1.62
343.14 K, x2 = 0.5193 | 8.18e-08 | 0.97
343.16 K, x2 = 0.6988 | 7.93e-08 | 0.66
343.18 K, x2 = 0.7945 | 7.71e-08 | 0.59

FCF [difluoromethane]
[2]
Conditions | kinematic viscosity [m2/s] | surface tension liquid-gas [mN/m]
293.15 K | 1.29e-07 | 7.4
303.15 K | 1.17e-07 | 5.94
313.07 K | 1.08e-07 | 4.35
323.15 K | 9.98e-08 | 2.96
333.14 K | 9.3e-08 | 1.67
343.16 K | 7.95e-08 | 0.57
348.18 K | 7.5e-08 | 0.14

F/C=C/C(F)(F)F [trans-1,3,3,3-tetrafluoropropene] + FCF
[1]
Conditions | kinematic viscosity, x2 = 0.2985 [m2/s] | kinematic viscosity, x2 = 0.5697 [m2/s] | kinematic viscosity, x2 = 0.7501 [m2/s] | surface tension liquid-gas, x2 = 0.2985 [mN/m] | surface tension liquid-gas, x2 = 0.5697 [mN/m] | surface tension liquid-gas, x2 = 0.7501 [mN/m]
293.14 K | – | 1.47e-07 | 1.37e-07 | – | – | –
293.16 K | 1.61e-07 | – | – | 8.46 | 8.02 | 7.74
303.16 K | – | 1.34e-07 | 1.28e-07 | – | – | –
303.17 K | 1.43e-07 | – | – | 7.17 | 6.63 | 6.3
313.12 K | – | 1.22e-07 | 1.14e-07 | – | – | –
313.13 K | 1.32e-07 | – | – | 5.93 | 5.34 | 4.91
323.13 K | 1.23e-07 | – | – | 4.75 | 4.15 | 3.62
323.14 K | – | 1.13e-07 | 1.04e-07 | – | – | –
333.14 K | – | 1.03e-07 | 9.75e-08 | – | – | –
333.16 K | 1.11e-07 | – | – | 3.62 | 2.89 | 2.41
343.11 K | – | 9.31e-08 | 8.96e-08 | – | – | –
343.12 K | 1.02e-07 | – | – | 2.54 | 1.83 | 1.32
348.17 K | 9.63e-08 | – | – | 2.06 | 1.34 | 0.83
348.19 K | – | 8.74e-08 | 8.58e-08 | – | – | –
